# Data as given in ChEMBL document CHEMBL1152465, “Comparative evaluation of the inhibitory activities of a series of pyrimidinedione congeners that inhibit human immunodeficiency virus types 1 and 2” (Antimicrob Agents Chemother, 2008).
# pEC50, pIC50: −log10 of the molar value. The source made the active and inactive calls.
# What was measured:
# [1] = system: Human immunodeficiency virus 2; test: Antiviral activity against HIV2 ROD infected in human CEM-SS cells assessed as inhibition of virus-induced cytopathic effect by XTT assay; type: functional, organism-based, ISOLATE ROD; conditions: for EC50: cem-ss; for pEC50: Human immunodeficiency virus 2, ISOLATE ROD, CEM-SS, read-out: EC50
# [2] = Therapeutic index, ratio of TC50 for human CEM-SS cells to EC50 for HIV1 RF infected in human CEM-SS cells; type: cell-based; conditions: read-out: TI
# [3] = Therapeutic index, ratio of TC50 for human CEM-SS cells to EC50 for HIV2 ROD infected in human CEM-SS cells; type: cell-based; conditions: for TI: cem-ss; for selectivity ratio: CEM-SS cells, read-out: TI
# [4] = target: Human immunodeficiency virus type 1 reverse transcriptase (Human immunodeficiency virus 1, UniProt Q72547); test: Inhibition of wild type HIV1 reverse transcriptase assessed as 32P-labeled GMP incorporation into nascent DNA strand
# [5] = target: Human immunodeficiency virus type 1 reverse transcriptase (Human immunodeficiency virus 1, UniProt Q72547, K103N); test: Inhibition of HIV1 reverse transcriptase K103N mutant assessed as 32P-labeled GMP incorporation into nascent DNA strand
# [6] = system: Human immunodeficiency virus 1; test: Antiviral activity against HIV1 infected in human HeLa cells expressing CD4-LTR assessed as inhibition of viral entry-related beta galactosidase expression treated for 2 hrs followed by drug wash out measured after 48 hrs by MAGI assay; type: functional, organism-based; conditions: Human immunodeficiency virus 1, HeLa
# [7] = Cytotoxicity against human HeLa cells expressing CD4-LTR by XTT assay; type: cell-based; conditions: read-out: TC50 (the source's name)
# [8] = Therapeutic index, ratio of TC50 human HeLa cells expressing CD4-LTR to EC50 for HIV1 entry inhibition in human HeLa cells expressing CD4-LTR; type: cell-based; conditions: read-out: TI
# [9] = system: Human immunodeficiency virus 1; test: Antiviral activity against HIV1 infected in human CEM-SS cells assessed as inhibition of viral replication and virus-induced cytopathic effect by dose-response curve analysis; type: functional; conditions: Human immunodeficiency virus 1, CEM-SS
# [10] = system: Human immunodeficiency virus 2; test: Inhibition of HIV2 reverse transcriptase
# [11] = system: Human immunodeficiency virus 2; test: Antiviral activity against HIV2 assessed as inhibition of viral single round replication at early time point; type: functional, organism-based
# [12] = system: Human immunodeficiency virus 2; test: Antiviral activity against HIV2 assessed as inhibition of viral replication treated at time points after viral entry into host cells; type: functional, organism-based
# [13] = system: Human immunodeficiency virus 2; test: Inhibition of HIV2 reverse transcriptase assessed as 32P-labeled GMP incorporation into nascent DNA strand at highest concentration
# [14] = system: Human immunodeficiency virus 1; test: Antiviral activity against HIV1 RF infected in human CEM-SS cells assessed as inhibition of virus-induced cytopathic effect by XTT assay; type: functional, organism-based; conditions: Human immunodeficiency virus 1, RF
# [15] = Cytotoxicity against human CEM-SS cells by XTT assay; type: cell-based; conditions: read-out: TC50 (the source's name)
SMILES,EC50 [1],selectivity ratio [2],TI [3],pIC50 [4],pIC50 [5],pEC50 [6],CC50 [7] [µM],selectivity ratio [8],EC99 [9] [µM],Activity [10],Activity [11],Activity [12],Activity [13],pEC50 [14],CC50 [15] [µM],pEC50 [1],selectivity ratio [3]
Cc1cc(C)cc(C(=O)c2c(C(C)C)c(=O)[nH]c(=O)n2CCC2=CCCC2)c1,Not Active,750,Not Active,6.65,3.64,7.52,29.4,1040,1,inactive,Active,inactive,inactive,7.28,19.2,,
CCc1c(C(=O)c2cc(C)cc(C)c2)n(CC2CCC2)c(=O)[nH]c1=O,,60700,,5.62,5.36,7.22,850,14500,1,inactive,Active,inactive,inactive,7.85,850,5.35,190
CCc1c(Sc2cc(C)cc(C)c2)n(CCC2CCCC2)c(=O)[nH]c1=O,,154,,5.66,4.43,6.32,29,60,1,inactive,Active,inactive,inactive,6.74,29,4.57,1.1
CC(C)c1c(Sc2ccccc2)n(CC2CC=CC2)c(=O)[nH]c1=O,Not Active,1300,Not Active,6.61,< 3.53,5.92,25.9,22,1,inactive,Active,inactive,inactive,7.55,15.5,,
CCc1c(Oc2cc(C)cc(C)c2)n(CC2=CCCC2)c(=O)[nH]c1=O,,4080,,6.91,6.66,8.05,62.9,7280,1,inactive,Active,inactive,inactive,7.80,62.9,5.89,47.6
CCc1c(Sc2cc(C)cc(C)c2)n(CC2CCCCC2)c(=O)[nH]c1=O,,534,,6.82,< 3.57,7.30,71.7,1320,1,inactive,Active,inactive,inactive,6.87,71.7,4.57,2.7
CCc1c(Oc2cc(C)cc(C)c2)n(CC2CCCCC2)c(=O)[nH]c1=O,,5140,,6.88,5.72,6.64,129,555,1,inactive,Active,inactive,inactive,7.55,114,5.29,28.6
CCc1c(C(=O)c2cc(C)cc(C)c2)n(CCC2CC=CC2)c(=O)[nH]c1=O,,5660,,7.74,5.72,5.90,45,36,1,inactive,Active,inactive,inactive,7.89,13.4,5.82,8.8
